Reference: ChEMBL document CHEMBL1909046, “DrugMatrix in vitro pharmacology data”

Key:
[1] = DRUGMATRIX: Phorbol Ester radioligand binding (ligand: [3H] PDBu); format: cell membranes, Mus musculus, ICR, Brain, Membrane; conditions: Not Active = under 50% inhibition at 10 µM
[2] = target: Carbonic anhydrase 2 (Homo sapiens, UniProt P00918); assay: DRUGMATRIX: Carbonic Anhydrase II enzyme inhibition (substrate: 4-Nitrophenyl acetate (4-NPA)); format: tissue-based, Erythrocyte; conditions: erythrocyte; Not Active = under 50% inhibition at 10 µM
[3] = DRUGMATRIX: Calcium Channel Type L, Dihydropyridine radioligand binding (ligand: [3H] Nitrendipine); format: cell membranes, Rattus norvegicus, Wistar, Cerebral cortex, Membrane; conditions: Not Active = under 50% inhibition at 10 µM
[4] = target: D(3) dopamine receptor (Homo sapiens, UniProt P35462); assay: DRUGMATRIX: Dopamine D3 radioligand binding (ligand: [3H] Spiperone); format: cell membranes, CHO, Membrane; conditions: cho
[5] = DRUGMATRIX: Glutamate, AMPA radioligand binding (ligand: [3H] AMPA); format: cell membranes, Rattus norvegicus, Wistar, Cerebral cortex, Membrane; conditions: Not Active = under 50% inhibition at 10 µM
[6] = target: Melanocortin receptor 3 (Homo sapiens, UniProt P41968); format: cell membranes, Membrane; conditions: hek293; further: in other assays of this panel Not Active means under 50% inhibition at 10 µM
[7] = target: Tyrosine-protein kinase Fyn (Homo sapiens, UniProt P06241); assay: biochemical; format: cell-based, Insect cells; conditions: insect cells;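 further: enzymatic inhibition of Fyn kinase activity measured with Poly(Glu:Tyr) as the phosphorylation substrate; in other assays of this panel Not Active means under 50% inhibition at 10 µM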
[8] = target: Substance-P receptor (Homo sapiens, UniProt P25103); format: cell membranes, CHO, Membrane; conditions: cho; further: in other assays of this panel Not Active means under 50% inhibition at 10 µM
[9] = target: Aldo-keto reductase family 1 member B1 (Rattus norvegicus, UniProt P07943); format: tissue-based, Lens of camera-type eye;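 further: inhibition of aldose reductase enzyme activity, measured with DL-glyceraldehyde as the substrate; in other assays of this panel Not Active means under 50% inhibition at 10 µM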
[10] = target: T1, Interstitial collagenase (Homo sapiens, UniProt P03956); format: tissue-based, Rheumatoid synovial fibroblasts
T1 sequence (P03956 whole entry): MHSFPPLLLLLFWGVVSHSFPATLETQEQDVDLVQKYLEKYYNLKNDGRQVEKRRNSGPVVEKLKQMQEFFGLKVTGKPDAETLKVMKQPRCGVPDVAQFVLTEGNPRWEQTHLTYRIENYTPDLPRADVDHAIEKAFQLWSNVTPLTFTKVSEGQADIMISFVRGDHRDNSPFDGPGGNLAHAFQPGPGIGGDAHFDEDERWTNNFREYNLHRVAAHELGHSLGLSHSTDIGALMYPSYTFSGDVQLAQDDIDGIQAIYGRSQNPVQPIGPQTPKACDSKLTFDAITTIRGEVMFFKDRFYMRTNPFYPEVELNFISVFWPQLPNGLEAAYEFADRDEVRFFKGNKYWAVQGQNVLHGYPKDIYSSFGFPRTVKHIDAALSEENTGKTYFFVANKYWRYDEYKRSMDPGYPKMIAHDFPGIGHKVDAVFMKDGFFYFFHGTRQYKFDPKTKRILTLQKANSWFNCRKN

[11] = DRUGMATRIX: Serotonin (5-Hydroxytryptamine) 5-HT3 radioligand binding (ligand: [3H] GR-65630); format: cell membranes, Membrane; conditions: hek293; Not Active = under 50% inhibition at 10 µM
[12] = DRUGMATRIX: GABAA, Flunitrazepam, Central radioligand binding (ligand: [3H] Flunitrazepam); format: cell membranes, Rattus norvegicus, Wistar, Brain, Membrane; conditions: Not Active = under 50% inhibition at 10 µM
[13] = target: Mitogen-activated protein kinase 14 (Homo sapiens, UniProt Q16539); parameters: species or system Escherichia coli
[14] = target: T2, Adenosine receptor A3 (Homo sapiens, UniProt P0DMS8); format: cell membranes, CHO-K1, Membrane
T2 sequence (P0DMS8 whole entry): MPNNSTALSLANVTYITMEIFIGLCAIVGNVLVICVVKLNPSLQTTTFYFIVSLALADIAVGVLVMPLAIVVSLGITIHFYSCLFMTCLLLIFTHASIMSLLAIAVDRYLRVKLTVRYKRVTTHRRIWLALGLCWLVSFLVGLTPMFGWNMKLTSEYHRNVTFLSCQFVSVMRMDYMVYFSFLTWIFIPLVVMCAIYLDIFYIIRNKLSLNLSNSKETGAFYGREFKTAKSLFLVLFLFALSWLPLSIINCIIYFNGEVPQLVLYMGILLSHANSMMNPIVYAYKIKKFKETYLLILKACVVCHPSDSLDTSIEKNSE

[15] = DRUGMATRIX: Glutamate, Kainate radioligand binding (ligand: [3H] Kainic acid); format: cell membranes, Rattus norvegicus, Wistar, Brain, Membrane; conditions: Not Active = under 50% inhibition at 10 µM
[16] = DRUGMATRIX: GABAA, Muscimol, Central radioligand binding (ligand: [3H] Muscimol); format: cell membranes, Rattus norvegicus, Wistar, Brain, Membrane; conditions: Not Active = under 50% inhibition at 10 µM
[17] = target: Delta-type opioid receptor (Homo sapiens, UniProt P41143); format: cell membranes, HEK293, Membrane; conditions: hek293; further: in other assays of this panel Not Active means under 50% inhibition at 10 µM
[18] = target: T3, C-X-C chemokine receptor type 1 (Homo sapiens, UniProt P25024); further: in other assays of this panel Not Active means under 50% inhibition at 10 µM
T3 sequence (P25024 whole entry): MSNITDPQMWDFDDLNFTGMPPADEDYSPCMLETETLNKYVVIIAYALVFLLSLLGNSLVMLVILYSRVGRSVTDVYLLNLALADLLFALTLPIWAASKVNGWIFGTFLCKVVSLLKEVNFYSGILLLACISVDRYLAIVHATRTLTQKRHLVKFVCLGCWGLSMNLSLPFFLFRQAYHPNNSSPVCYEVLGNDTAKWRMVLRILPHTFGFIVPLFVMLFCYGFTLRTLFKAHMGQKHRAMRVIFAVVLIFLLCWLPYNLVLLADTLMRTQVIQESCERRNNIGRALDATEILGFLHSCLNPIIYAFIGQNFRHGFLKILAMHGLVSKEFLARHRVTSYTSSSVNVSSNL

[19] = target: D(1A) dopamine receptor (Homo sapiens, UniProt P21728); assay: DRUGMATRIX: Dopamine D1 radioligand binding (ligand: [3H] SCH-23390); format: cell membranes, CHO, Membrane; conditions: cho; Not Active = under 50% inhibition at 10 µM
[20] = target: T4, Progesterone receptor (Bos taurus, UniProt Q690N0); assay: DRUGMATRIX: Progesterone radioligand binding (ligand: [3H] R-5020); format: tissue-based, Uterus; conditions: Not Active = under 50% inhibition at 10 µM
T4 sequence (Q690N0 whole entry): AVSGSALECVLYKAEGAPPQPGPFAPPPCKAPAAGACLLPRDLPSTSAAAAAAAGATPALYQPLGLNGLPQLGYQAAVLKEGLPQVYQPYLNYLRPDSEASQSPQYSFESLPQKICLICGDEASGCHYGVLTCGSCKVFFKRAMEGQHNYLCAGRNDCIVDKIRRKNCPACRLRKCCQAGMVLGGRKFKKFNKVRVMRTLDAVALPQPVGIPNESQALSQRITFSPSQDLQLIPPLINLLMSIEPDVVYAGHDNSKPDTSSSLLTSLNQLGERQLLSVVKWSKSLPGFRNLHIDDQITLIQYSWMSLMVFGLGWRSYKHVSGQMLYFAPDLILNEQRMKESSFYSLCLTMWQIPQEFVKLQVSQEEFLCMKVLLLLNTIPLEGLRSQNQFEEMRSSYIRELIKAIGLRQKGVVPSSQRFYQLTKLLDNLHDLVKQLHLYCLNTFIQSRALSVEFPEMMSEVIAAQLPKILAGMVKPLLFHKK

Mitogen-activated protein kinase 14, sequence (Q16539 whole entry): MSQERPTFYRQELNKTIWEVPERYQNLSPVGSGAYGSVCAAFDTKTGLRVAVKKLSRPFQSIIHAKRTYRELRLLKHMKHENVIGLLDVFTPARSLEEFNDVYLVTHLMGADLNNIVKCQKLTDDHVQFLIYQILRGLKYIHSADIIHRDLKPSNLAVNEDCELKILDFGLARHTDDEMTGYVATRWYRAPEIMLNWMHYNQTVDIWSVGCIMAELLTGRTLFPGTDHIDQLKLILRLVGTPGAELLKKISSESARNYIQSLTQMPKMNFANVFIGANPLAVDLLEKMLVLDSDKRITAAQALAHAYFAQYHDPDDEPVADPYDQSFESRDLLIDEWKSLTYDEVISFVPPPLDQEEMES
Substance-P receptor, sequence (P25103 whole entry): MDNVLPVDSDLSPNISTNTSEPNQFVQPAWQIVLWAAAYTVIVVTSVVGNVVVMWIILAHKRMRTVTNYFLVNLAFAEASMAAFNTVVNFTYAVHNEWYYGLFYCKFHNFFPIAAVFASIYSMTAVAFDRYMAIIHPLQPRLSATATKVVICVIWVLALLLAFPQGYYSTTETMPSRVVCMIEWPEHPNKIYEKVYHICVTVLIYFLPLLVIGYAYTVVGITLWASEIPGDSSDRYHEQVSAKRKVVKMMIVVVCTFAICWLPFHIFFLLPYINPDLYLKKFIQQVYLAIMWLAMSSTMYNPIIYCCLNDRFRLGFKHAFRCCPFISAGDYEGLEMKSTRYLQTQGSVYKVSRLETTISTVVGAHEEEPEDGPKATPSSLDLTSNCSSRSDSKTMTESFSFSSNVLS
Delta-type opioid receptor, sequence (P41143 whole entry): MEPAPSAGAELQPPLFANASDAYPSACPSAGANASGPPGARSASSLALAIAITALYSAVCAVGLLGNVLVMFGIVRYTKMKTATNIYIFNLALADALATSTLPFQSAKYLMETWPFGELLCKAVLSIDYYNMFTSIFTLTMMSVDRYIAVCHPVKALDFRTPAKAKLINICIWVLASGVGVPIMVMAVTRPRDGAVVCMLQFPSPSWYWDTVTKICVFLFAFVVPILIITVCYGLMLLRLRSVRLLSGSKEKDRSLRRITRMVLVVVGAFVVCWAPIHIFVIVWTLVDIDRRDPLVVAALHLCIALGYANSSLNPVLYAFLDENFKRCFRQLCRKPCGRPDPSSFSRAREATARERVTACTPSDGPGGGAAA
D(1A) dopamine receptor, sequence (P21728 whole entry): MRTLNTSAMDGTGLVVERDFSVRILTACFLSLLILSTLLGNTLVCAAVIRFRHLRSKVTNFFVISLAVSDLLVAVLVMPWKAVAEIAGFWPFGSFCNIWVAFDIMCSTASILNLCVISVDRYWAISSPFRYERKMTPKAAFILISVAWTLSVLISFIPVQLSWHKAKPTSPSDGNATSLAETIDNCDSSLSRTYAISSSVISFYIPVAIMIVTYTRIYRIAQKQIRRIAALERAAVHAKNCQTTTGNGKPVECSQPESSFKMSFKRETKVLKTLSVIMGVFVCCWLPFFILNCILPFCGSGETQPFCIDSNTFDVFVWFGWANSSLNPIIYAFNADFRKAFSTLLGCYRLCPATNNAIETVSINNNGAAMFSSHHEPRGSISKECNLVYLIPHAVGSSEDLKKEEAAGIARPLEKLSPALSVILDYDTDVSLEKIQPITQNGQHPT
Melanocortin receptor 3, sequence (P41968 whole entry): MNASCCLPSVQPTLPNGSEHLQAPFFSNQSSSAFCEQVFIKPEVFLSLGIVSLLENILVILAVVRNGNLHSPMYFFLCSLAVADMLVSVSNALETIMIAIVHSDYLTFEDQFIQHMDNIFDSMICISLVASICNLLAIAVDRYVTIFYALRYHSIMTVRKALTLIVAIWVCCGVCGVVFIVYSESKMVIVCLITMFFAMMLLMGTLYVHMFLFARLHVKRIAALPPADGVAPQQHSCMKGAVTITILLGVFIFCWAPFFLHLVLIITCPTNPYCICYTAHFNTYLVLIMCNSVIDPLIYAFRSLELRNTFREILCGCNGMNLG
Tyrosine-protein kinase Fyn, sequence (P06241 whole entry): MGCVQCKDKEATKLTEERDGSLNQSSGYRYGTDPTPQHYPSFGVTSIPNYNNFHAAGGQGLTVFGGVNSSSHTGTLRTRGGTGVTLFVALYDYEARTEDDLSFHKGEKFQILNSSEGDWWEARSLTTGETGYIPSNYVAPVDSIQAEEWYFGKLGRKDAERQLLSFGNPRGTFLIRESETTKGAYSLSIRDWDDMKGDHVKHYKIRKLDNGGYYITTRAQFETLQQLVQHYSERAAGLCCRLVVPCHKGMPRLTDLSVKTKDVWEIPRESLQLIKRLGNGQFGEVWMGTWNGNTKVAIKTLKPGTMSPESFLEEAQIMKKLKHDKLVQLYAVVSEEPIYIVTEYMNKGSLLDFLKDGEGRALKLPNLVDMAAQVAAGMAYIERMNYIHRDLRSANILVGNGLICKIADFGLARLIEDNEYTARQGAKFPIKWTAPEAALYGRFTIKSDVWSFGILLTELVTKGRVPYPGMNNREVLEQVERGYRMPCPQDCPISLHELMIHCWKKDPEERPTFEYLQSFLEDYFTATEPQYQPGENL
D(3) dopamine receptor, sequence (P35462 whole entry): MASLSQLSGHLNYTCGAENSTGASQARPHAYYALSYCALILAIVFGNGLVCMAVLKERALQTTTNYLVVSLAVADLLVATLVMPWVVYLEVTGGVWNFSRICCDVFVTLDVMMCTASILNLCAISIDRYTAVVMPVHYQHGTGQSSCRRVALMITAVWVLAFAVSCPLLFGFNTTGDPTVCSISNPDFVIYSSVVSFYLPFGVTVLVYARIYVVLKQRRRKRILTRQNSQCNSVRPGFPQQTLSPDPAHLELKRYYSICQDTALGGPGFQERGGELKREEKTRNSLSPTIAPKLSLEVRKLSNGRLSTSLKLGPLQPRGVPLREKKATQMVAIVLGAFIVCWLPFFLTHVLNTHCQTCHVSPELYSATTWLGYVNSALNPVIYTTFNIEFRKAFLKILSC

| SMILES | IC50 [1] | Ki [1] | IC50 [2] | IC50 [3] | Ki [3] | IC50 [4] | IC50 [5] | Ki [5] | IC50 [6] | IC50 [7] | IC50 [8] | IC50 [9] | IC50 [10] | IC50 [11] | Ki [11] | IC50 [12] | Ki [12] | IC50 [13] | IC50 [15] | Ki [15] | other results |
| --- | --- | --- | --- | --- | --- | --- | --- | --- | --- | --- | --- | --- | --- | --- | --- | --- | --- | --- | --- | --- | --- |
| CO[C@@H]1[C@@H](O[C@@H]2O[C@H](C)[C@@H](O[C@H]3C[C@@](C)(O)[C@@H](OC(=O)CC(C)C)[C@H](C)O3)[C@H](N(C)C)[C@H]2O)[C@@H](CC=O)C[C@@H](C)[C@@H](O)/C=C/C=C/C[C@@H](C)OC(=O)C[C@H]1O [KITASAMYCIN] | Not Active | Not Active | Not Active | Not Active | Not Active | Not Active | Not Active | Not Active | Not Active | Not Active | Not Active | Not Active | Not Active | Not Active | Not Active | Not Active | Not Active | Not Active | Not Active | Not Active | IC50 ([14]; cho-k1): Not Active; IC50 [16]: Not Active; Ki [16]: Not Active; IC50 [17]: Not Active; IC50 [18]: Not Active; IC50 [19]: Not Active; IC50 [20]: Not Active |
| Clc1ccc(C(c2ccccc2Cl)C(Cl)Cl)cc1 (stereo not given) [MITOTANE] | Not Active | Not Active | Not Active | Not Active | Not Active | Not Active | Not Active | Not Active | Not Active | Not Active | Not Active | Not Active | Not Active | Not Active | Not Active | Not Active | Not Active | Not Active | Not Active | Not Active | IC50 ([14]; read-out: IC50): 7.45 µM; Ki ([14]; read-out: Ki): 4.21 µM; IC50 [16]: Not Active; Ki [16]: Not Active; IC50 [17]: Not Active; IC50 [18]: Not Active; IC50 [19]: Not Active; IC50 [20]: Not Active |
